Data: US11547681B2, “N-acylethanolamide derivatives and uses thereof” (ELIEM THERAPEUTICS, INC., priority 2016, dated 2023)

Experiment: in vitro
Conditions: for Concentration (μM) of analyte PEA, 0 min / Concentration (μM) of analyte PEA, 10 min / Concentration (μM) of analyte PEA, 20 min / Concentration (μM) of analyte PEA, 30 min / Concentration (μM) of analyte PEA, 60 min / % Remaining of Initial (n = 1), 0 min / % Remaining of Initial (n = 1), 10 min / % Remaining of Initial (n = 1), 20 min / % Remaining of Initial (n = 1), 30 min / % Remaining of Initial (n = 1), 60 min / Measured concentration of PEA (analyte) / % Remaining of Initial: 1 μM
Description: Reaction mixture, minus cofactors, was prepared as described below. Test article was added into the reaction mixture at a final concentration of 1 μM. […] An aliquot of the reaction mixture (without cofactor cocktail) was equilibrated in a shaking water bath at 37° C. for 3 minutes. The reaction was initiated by the addition of cofactor cocktail (see below), and the mixture was then incubated in a shaking water bath at 37° C. Aliquots (100 μL) were withdrawn 0, 10, 20, 30 and 60 minutes. Test article samples were immediately combined with 300 μL of ice-cold acetonitrile containing 1% formic acid. Control samples were immediately combined with 400 μL of ice-cold 50/50 acetonitrile (ACN)/dH2O containing 0.1% formic acid and internal standard to terminate the reaction. Samples were then mixed and centrifuged to precipitate proteins. Calibration standards were prepared in matched matrix. Samples and standards were assayed by LC-MS/MS using electrospray ionization for both the dosed prodrug and the expected drug (PEA). Analytical conditions are outlined in Appendix 8-1. Test article concentration at each time point was compared to the test article concentration at time 0 to determine the percent remaining at each time point. Half-lives were calculated using GraphPad software, fitting to a single-phase exponential decay equation.
Reaction mixture, minus cofactors, was prepared as described below. Test article was added into the reaction mixture at a final concentration of 1 μM. […] An aliquot of the reaction mixture (without cofactor cocktail) was equilibrated in a shaking water bath at 37° C. for 5 minutes. Reaction was initiated by the addition of cofactor cocktail (see below), and mixture was then incubated in a shaking water bath at 37° C. Aliquots (100 μL) were withdrawn at 0, 10, 20, 30, and 60 minutes. Test article samples were immediately combined with 300 μL of ice-cold acetonitrile containing 1% formic acid. Control samples were immediately combined with 400 μL of ice-cold 50/50 acetonitrile (ACN)/dH2O containing 0.1% formic acid and internal standard to terminate the reaction. Samples were then mixed and centrifuged to precipitate proteins. Calibration standards were prepared in matched matrix. Samples and standards were assayed by LC-MS/MS using electrospray ionization for both dosed prodrug and expected drug (PEA). Analytical conditions are outlined in Appendix 10-1. Test article concentration at each time point was compared to test article concentration at time 0 to determine the percent remaining at each time point. Half-lives were calculated using GraphPad software, fitting to a single-phase exponential decay equation.
The reaction mixture, minus cofactors, was prepared as described below. Test article was added into the reaction mixture at a final concentration of 1 μM. […] An aliquot of the reaction mixture (without cofactor cocktail) was equilibrated in a shaking water bath at 37° C. for 3 minutes. Reaction was initiated by the addition of cofactor cocktail (see below), and the mixture was then incubated in a shaking water bath at 37° C. Aliquots (100 μL) were withdrawn at 0, 10, 20, 30, and 60 minutes. Test article samples were immediately combined with 300 μL of ice-cold acetonitrile containing 1% formic acid. Control samples were immediately combined with 400 μL of ice-cold 50/50 acetonitrile (ACN)/dH2O containing 0.1% formic acid and internal standard to terminate the reaction. Samples were then mixed and centrifuged to precipitate proteins. Calibration standards were prepared in matched matrix. Samples and standards were assayed by LC-MS/MS using electrospray ionization for both dosed prodrug and expected drug (PEA). Analytical conditions are outlined in Appendix 13-1. Test article concentration at each time point was compared to the test article concentration at time 0 to determine the percent remaining at each time point.

[1] = male, Sprague-Dawley, rat, 0 min
[2] = male, Sprague-Dawley, rat, 10 min
[3] = male, Sprague-Dawley, rat, 20 min
[4] = male, Sprague-Dawley, rat, 30 min
[5] = male, Sprague-Dawley, rat, 60 min
[6] = male, Sprague-Dawley, rat, s9, 0 h
[7] = male, Sprague-Dawley, rat, s9, 10 min
[8] = male, Sprague-Dawley, rat, s9, 20 min
[9] = male, Sprague-Dawley, rat, s9, 0.5 h
[10] = male, Sprague-Dawley, rat, s9, 1 h

CCCCCCCCCCCCCCCC(=O)NCCOC(=O)CCC(=O)OC[C@H]1O[C@@](CO)(O[C@H]2O[C@H](CO)[C@@H](O)[C@H](O)[C@H]2O)[C@@H](O)[C@@H]1O [Compound I-7]
Concentration (μM) of analyte PEA, 0 min (both, human, 0 min): 0.20 µM
Concentration (μM) of analyte PEA, 10 min (both, human, 10 min): 0.32 µM
Concentration (μM) of analyte PEA, 20 min (both, human, 20 min): 0.17 µM
Concentration (μM) of analyte PEA, 30 min (both, human, 30 min): 0.13 µM
Concentration (μM) of analyte PEA, 60 min (both, human, 60 min): 0.042 µM
% Remaining of Initial (n = 1), 0 min (both, human, s9, 0 h): 100%
% Remaining of Initial (n = 1), 10 min (both, human, s9, 10 min): 1.9%
% Remaining of Initial (n = 1), 20 min (both, human, s9, 20 min): <1.0%
% Remaining of Initial (n = 1), 30 min (both, human, s9, 0.5 h): <1.0%
% Remaining of Initial (n = 1), 60 min (both, human, s9, 1 h): <1.0%
Concentration (μM) of analyte PEA, 0 min (male, Beagle, dog, 0 min): 0.21 µM
Concentration (μM) of analyte PEA, 10 min (male, Beagle, dog, 10 min): 0.16 µM
Concentration (μM) of analyte PEA, 20 min (male, Beagle, dog, 20 min): 0.15 µM
Concentration (μM) of analyte PEA, 30 min (male, Beagle, dog, 30 min): 0.12 µM
Concentration (μM) of analyte PEA, 60 min (male, Beagle, dog, 60 min): 0.049 µM
% Remaining of Initial (n = 1), 0 min (male, Beagle, dog, s9, 0 h): 100%
% Remaining of Initial (n = 1), 10 min (male, Beagle, dog, s9, 10 min): <1.0%
% Remaining of Initial (n = 1), 20 min (male, Beagle, dog, s9, 20 min): <1.0%
% Remaining of Initial (n = 1), 30 min (male, Beagle, dog, s9, 0.5 h): <1.0%
% Remaining of Initial (n = 1), 60 min (male, Beagle, dog, s9, 1 h): <1.0%
half-life at 1 μM (male, Beagle, dog, s9, Half-life (min)): < 1 min
Concentration (μM) of analyte PEA, 0 min (male, CD-1, mouse, 0 min): 0.22 µM
Concentration (μM) of analyte PEA, 10 min (male, CD-1, mouse, 10 min): 0.22 µM
Concentration (μM) of analyte PEA, 20 min (male, CD-1, mouse, 20 min): 0.14 µM
Concentration (μM) of analyte PEA, 30 min (male, CD-1, mouse, 30 min): 0.084 µM
Concentration (μM) of analyte PEA, 60 min (male, CD-1, mouse, 60 min): 0.020 µM
% Remaining of Initial (n = 1), 0 min (male, CD-1, mouse, s9, 0 h): 100%
% Remaining of Initial (n = 1), 10 min (male, CD-1, mouse, s9, 10 min): 1.6%
% Remaining of Initial (n = 1), 20 min (male, CD-1, mouse, s9, 20 min): <1.0%
% Remaining of Initial (n = 1), 30 min (male, CD-1, mouse, s9, 0.5 h): <1.0%
% Remaining of Initial (n = 1), 60 min (male, CD-1, mouse, s9, 1 h): <1.0%
Concentration (μM) of analyte PEA, 0 min [1]: 0.045 µM
Concentration (μM) of analyte PEA, 10 min [2]: 0.15 µM
Concentration (μM) of analyte PEA, 20 min [3]: 0.16 µM
Concentration (μM) of analyte PEA, 30 min [4]: 0.12 µM
Concentration (μM) of analyte PEA, 60 min [5]: 0.039 µM
% Remaining of Initial (n = 1), 0 min [6]: 100%
% Remaining of Initial (n = 1), 10 min [7]: 43%
% Remaining of Initial (n = 1), 20 min [8]: 22%
% Remaining of Initial (n = 1), 30 min [9]: 11%
% Remaining of Initial (n = 1), 60 min [10]: 1.4%

CCCCCCCCCCCCCCCC(=O)NCCOC(=O)CCC(=O)OC(CO)CO [Compound I-8]
Measured concentration of PEA (analyte) (both, human, 0 min): 0.19 µM
Measured concentration of PEA (analyte) (both, human, 10 min): 0.57 µM
Measured concentration of PEA (analyte) (both, human, 20 min): 0.47 µM
Measured concentration of PEA (analyte) (both, human, 30 min): 0.41 µM
Measured concentration of PEA (analyte) (both, human, 60 min): 0.28 µM
% Remaining of Initial (both, human, s9, 0 h): 100%
% Remaining of Initial (both, human, s9, 10 min): 1.4%
% Remaining of Initial (both, human, s9, 20 min): <1.0%
% Remaining of Initial (both, human, s9, 0.5 h): <1.0%
% Remaining of Initial (both, human, s9, 1 h): <1.0%
half-life at 1 μM (both, human, s9, Half-life): < 10 min
Measured concentration of PEA (analyte) (male, Beagle, dog, 0 min): 0.13 µM
Measured concentration of PEA (analyte) (male, Beagle, dog, 10 min): 0.33 µM
Measured concentration of PEA (analyte) (male, Beagle, dog, 20 min): 0.34 µM
Measured concentration of PEA (analyte) (male, Beagle, dog, 30 min): 0.33 µM
Measured concentration of PEA (analyte) (male, Beagle, dog, 60 min): 0.20 µM
% Remaining of Initial (male, Beagle, dog, s9, 0 h): 100%
% Remaining of Initial (male, Beagle, dog, s9, 10 min): 32%
% Remaining of Initial (male, Beagle, dog, s9, 20 min): 11%
% Remaining of Initial (male, Beagle, dog, s9, 0.5 h): 3.5%
% Remaining of Initial (male, Beagle, dog, s9, 1 h): <1.0%
half-life at 1 μM (male, Beagle, dog, s9, Half-life): < 10 min
Measured concentration of PEA (analyte) (male, CD-1, mouse, 0 min): 0.29 µM
Measured concentration of PEA (analyte) (male, CD-1, mouse, 10 min): 0.50 µM
Measured concentration of PEA (analyte) (male, CD-1, mouse, 20 min): 0.44 µM
Measured concentration of PEA (analyte) (male, CD-1, mouse, 30 min): 0.38 µM
Measured concentration of PEA (analyte) (male, CD-1, mouse, 60 min): 0.37 µM
% Remaining of Initial (male, CD-1, mouse, s9, 0 h): 100%
% Remaining of Initial (male, CD-1, mouse, s9, 10 min): 4.6%
% Remaining of Initial (male, CD-1, mouse, s9, 20 min): 1.0%
% Remaining of Initial (male, CD-1, mouse, s9, 0.5 h): <1.0%
% Remaining of Initial (male, CD-1, mouse, s9, 1 h): <1.0%
half-life at 1 μM (male, CD-1, mouse, s9, Half-life): < 10 min
half-life at 1 μM (male, CD-1, mouse, s9, Half-life, calculated value in parentheses): 2.3 min
Measured concentration of PEA (analyte) [1]: 0.069 µM
Measured concentration of PEA (analyte) [2]: 0.17 µM
Measured concentration of PEA (analyte) [3]: 0.092 µM
Measured concentration of PEA (analyte) [4]: 0.061 µM
Measured concentration of PEA (analyte) [5]: 0.013 µM
% Remaining of Initial [6]: 100%
% Remaining of Initial [7]: 17%
% Remaining of Initial [8]: 2.8%
% Remaining of Initial [9]: <1.0%
% Remaining of Initial [10]: <1.0%
half-life at 1 μM (male, Sprague-Dawley, rat, s9, Half-life): < 10 min
half-life at 1 μM (male, Sprague-Dawley, rat, s9, Half-life, calculated value in parentheses): 3.9 min
